Experimental data as given in patent US8168651B2, “Protein kinase modulators” (Cylene Pharmaceuticals, Inc., priority 2008, dated 2012).

What was measured:
Assay in all cases: Standardized radiometric kinase assays, percentage of activity at 0.5 μM;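 note: Read-out is ³³P-labelled substrate protein phosphorylated by each kinase, captured on filters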
[1] = target: each individual kinase of the panel (Homo sapiens, UniProt Q16566)
[2] = target: each individual kinase of the panel (Homo sapiens, UniProt Q9UBE8)
[3] = target: each individual kinase of the panel (Homo sapiens, UniProt Q16539)
[4] = target: each individual kinase of the panel (Homo sapiens, UniProt Q9P0L2)
[5] = target: each individual kinase of the panel (Homo sapiens, UniProt P53778)
[6] = target: each individual kinase of the panel (Homo sapiens, UniProt P54764)
[7] = target: each individual kinase of the panel (Homo sapiens, UniProt P29323)
[8] = target: each individual kinase of the panel (Homo sapiens, UniProt Q16620)
[9] = target: each individual kinase of the panel (Homo sapiens, UniProt P41743)
[10] = target: each individual kinase of the panel (Homo sapiens, UniProt P11362, V561M)
[11] = target: each individual kinase of the panel (Homo sapiens, UniProt P45984)
[12] = target: each individual kinase of the panel (Homo sapiens, UniProt Q06187)
[13] = target: each individual kinase of the panel (Homo sapiens, UniProt Q9NQU5)
[14] = target: each individual kinase of the panel (Homo sapiens, UniProt O14920)
[15] = target: each individual kinase of the panel (Homo sapiens, UniProt Q7KZI7)
[16] = target: each individual kinase of the panel (Homo sapiens, UniProt Q96RG2)
[17] = target: each individual kinase of the panel (Homo sapiens, UniProt Q9H2K8)
[18] = target: each individual kinase of the panel (Homo sapiens, UniProt P45983)
[19] = target: each individual kinase of the panel (Homo sapiens, UniProt Q05655)
[20] = target: each individual kinase of the panel (Homo sapiens, UniProt O75116)
[21] = target: each individual kinase of the panel (Homo sapiens, UniProt P29320)
[22] = target: each individual kinase of the panel (Homo sapiens, UniProt Q8N4C8)
[23] = target: each individual kinase of the panel (Homo sapiens, UniProt P51956)
[24] = target: each individual kinase of the panel (Homo sapiens, UniProt P52564)
[25] = target: each individual kinase of the panel (Homo sapiens, UniProt Q96BR1)
[26] = target: each individual kinase of the panel (Homo sapiens, UniProt Q86Z02)
[27] = target: each individual kinase of the panel (Homo sapiens, UniProt P54753)
[28] = target: each individual kinase of the panel (Homo sapiens, UniProt Q8TF76)
[29] = target: each individual kinase of the panel (Homo sapiens, UniProt Q02156)
[30] = target: each individual kinase of the panel (Homo sapiens, UniProt P29322)
[31] = target: each individual kinase of the panel (Homo sapiens, UniProt Q9UIK4)

each individual kinase of the panel (Homo sapiens, UniProt P29320), sequence (P29320 21-983 limits assumed): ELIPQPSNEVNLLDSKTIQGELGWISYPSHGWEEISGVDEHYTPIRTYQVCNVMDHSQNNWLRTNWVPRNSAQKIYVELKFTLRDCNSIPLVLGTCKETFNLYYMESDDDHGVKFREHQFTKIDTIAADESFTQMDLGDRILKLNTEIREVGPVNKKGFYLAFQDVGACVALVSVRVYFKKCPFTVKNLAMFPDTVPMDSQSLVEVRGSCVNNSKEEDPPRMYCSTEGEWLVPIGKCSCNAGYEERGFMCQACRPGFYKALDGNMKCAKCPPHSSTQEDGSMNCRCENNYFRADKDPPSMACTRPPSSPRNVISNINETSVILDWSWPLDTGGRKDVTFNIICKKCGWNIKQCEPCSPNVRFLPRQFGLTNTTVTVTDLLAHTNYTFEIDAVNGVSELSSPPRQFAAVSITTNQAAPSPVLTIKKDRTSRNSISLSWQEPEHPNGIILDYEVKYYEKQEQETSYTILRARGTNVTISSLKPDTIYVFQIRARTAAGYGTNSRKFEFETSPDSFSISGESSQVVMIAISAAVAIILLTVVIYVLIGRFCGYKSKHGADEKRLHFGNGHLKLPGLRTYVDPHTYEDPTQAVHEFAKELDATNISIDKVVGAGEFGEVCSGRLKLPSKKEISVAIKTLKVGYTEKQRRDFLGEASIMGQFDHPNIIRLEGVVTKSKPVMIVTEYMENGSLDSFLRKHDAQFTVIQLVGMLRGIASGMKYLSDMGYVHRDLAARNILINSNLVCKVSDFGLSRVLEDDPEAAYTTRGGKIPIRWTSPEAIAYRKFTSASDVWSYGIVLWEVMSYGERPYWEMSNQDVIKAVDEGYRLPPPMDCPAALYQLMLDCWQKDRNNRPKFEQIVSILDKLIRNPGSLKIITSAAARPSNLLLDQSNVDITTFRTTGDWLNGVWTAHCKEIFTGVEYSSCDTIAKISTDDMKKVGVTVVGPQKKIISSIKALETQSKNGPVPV
each individual kinase of the panel (Homo sapiens, UniProt P54764), sequence (P54764 20-986 limits assumed): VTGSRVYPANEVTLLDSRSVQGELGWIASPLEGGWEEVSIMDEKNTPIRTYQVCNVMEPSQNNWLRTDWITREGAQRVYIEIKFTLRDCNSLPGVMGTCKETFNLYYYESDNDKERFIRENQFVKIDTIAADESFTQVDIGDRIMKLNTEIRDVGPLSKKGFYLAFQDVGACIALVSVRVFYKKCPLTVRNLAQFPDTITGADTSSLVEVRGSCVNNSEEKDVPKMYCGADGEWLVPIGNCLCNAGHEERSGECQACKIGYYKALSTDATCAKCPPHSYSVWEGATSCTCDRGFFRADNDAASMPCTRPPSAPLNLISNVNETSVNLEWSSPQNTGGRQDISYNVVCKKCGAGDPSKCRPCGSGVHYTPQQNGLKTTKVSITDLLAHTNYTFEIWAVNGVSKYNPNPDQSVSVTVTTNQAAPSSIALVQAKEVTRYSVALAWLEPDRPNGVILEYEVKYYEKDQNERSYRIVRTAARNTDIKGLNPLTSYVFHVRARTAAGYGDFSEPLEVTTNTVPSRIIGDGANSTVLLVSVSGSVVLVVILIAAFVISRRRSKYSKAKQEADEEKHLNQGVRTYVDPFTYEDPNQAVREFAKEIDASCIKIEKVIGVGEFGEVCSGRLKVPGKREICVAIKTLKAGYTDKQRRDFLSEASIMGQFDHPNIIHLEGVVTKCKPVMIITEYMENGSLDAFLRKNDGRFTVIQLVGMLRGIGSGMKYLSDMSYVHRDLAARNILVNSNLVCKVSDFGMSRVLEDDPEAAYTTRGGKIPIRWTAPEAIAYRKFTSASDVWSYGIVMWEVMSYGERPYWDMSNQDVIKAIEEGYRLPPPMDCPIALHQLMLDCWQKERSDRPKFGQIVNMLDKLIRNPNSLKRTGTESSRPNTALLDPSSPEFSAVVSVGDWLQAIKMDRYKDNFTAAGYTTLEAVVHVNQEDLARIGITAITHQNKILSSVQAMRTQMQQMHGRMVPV
each individual kinase of the panel (Homo sapiens, UniProt P41743), sequence (P41743 2-596 limits assumed): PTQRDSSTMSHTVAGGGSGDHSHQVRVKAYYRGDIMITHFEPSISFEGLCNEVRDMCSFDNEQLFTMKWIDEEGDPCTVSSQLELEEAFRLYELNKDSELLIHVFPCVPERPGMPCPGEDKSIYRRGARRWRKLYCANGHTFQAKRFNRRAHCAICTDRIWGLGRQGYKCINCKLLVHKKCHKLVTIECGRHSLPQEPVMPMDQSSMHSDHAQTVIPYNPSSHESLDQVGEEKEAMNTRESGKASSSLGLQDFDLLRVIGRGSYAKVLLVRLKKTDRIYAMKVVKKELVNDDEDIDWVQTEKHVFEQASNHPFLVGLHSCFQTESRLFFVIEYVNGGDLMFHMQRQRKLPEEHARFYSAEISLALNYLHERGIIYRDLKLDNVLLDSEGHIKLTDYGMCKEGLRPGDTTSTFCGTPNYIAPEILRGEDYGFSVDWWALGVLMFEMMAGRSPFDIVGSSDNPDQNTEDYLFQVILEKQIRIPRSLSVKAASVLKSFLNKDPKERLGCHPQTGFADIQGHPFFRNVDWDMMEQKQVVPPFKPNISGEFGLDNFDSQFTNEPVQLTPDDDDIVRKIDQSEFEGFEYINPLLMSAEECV
each individual kinase of the panel (Homo sapiens, UniProt P54753), sequence (P54753 34-998 limits assumed): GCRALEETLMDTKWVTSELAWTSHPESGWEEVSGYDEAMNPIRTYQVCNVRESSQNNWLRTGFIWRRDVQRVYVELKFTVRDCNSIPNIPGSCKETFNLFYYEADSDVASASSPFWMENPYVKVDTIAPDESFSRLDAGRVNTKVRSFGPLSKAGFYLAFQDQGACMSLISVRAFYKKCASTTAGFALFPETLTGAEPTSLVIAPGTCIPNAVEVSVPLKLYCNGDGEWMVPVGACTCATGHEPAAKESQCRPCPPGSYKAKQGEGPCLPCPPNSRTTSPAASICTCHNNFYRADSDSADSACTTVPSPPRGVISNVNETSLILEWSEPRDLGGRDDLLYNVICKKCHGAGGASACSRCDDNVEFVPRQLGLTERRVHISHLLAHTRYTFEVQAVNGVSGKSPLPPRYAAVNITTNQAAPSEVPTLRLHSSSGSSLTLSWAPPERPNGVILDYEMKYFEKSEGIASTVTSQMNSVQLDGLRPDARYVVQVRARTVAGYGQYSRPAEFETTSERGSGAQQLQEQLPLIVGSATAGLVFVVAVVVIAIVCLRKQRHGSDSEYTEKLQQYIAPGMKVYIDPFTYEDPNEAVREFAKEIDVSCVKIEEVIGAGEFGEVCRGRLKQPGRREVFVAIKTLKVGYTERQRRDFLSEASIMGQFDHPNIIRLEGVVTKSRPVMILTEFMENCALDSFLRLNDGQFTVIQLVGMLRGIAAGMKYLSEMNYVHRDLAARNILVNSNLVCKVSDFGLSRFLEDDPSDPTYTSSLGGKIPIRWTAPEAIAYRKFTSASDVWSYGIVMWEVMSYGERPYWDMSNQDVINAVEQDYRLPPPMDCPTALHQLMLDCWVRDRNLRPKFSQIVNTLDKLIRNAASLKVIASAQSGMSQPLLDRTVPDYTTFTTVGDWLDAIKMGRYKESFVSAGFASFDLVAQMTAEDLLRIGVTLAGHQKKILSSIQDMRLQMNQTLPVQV
each individual kinase of the panel (Homo sapiens, UniProt P29323), sequence (P29323 19-1055 limits assumed): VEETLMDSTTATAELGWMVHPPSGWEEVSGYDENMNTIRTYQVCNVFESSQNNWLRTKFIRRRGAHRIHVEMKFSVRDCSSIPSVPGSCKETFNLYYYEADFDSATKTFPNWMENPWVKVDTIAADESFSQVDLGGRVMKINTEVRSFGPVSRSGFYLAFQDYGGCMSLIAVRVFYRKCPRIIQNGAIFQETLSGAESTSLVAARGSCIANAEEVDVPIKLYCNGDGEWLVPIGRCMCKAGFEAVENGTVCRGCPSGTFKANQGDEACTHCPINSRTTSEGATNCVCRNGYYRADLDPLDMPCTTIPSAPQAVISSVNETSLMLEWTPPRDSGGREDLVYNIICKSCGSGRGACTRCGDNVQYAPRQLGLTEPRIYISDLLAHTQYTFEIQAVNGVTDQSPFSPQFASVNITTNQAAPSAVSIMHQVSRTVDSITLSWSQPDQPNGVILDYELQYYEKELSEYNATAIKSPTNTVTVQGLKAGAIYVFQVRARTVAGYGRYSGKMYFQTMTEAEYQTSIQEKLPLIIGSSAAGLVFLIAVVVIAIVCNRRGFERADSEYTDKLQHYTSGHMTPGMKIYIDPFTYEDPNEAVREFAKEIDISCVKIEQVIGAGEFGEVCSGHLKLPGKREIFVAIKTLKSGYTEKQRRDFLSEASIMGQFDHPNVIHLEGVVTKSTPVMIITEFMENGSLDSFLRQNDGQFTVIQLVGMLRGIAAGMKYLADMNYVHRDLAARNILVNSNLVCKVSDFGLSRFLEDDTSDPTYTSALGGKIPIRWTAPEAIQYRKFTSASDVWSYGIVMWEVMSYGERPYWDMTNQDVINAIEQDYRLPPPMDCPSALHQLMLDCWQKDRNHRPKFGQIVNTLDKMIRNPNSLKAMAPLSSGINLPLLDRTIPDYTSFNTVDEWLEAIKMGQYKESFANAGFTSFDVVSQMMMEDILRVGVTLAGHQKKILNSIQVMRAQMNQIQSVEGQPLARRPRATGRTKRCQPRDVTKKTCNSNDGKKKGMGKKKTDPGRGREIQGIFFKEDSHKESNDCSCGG
each individual kinase of the panel (Homo sapiens, UniProt Q16539), sequence (Q16539 2-360 limits assumed): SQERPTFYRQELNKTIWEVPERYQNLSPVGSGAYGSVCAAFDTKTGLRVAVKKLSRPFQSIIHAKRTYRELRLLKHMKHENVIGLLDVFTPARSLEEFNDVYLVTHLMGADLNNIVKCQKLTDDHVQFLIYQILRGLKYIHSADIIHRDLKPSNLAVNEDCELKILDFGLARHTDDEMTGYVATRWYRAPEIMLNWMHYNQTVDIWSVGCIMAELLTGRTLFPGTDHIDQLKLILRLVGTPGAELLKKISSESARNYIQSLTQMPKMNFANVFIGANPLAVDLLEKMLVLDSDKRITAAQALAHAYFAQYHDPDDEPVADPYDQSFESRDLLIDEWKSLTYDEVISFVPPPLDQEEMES

CAMK4 percentage of activity [1]: 2%
NLK percentage of activity [2]: 3%
p38-alpha percentage of activity [3]: 1%
MARK1 percentage of activity [4]: 0%
p38-gamma percentage of activity [5]: 12%
EPHA4 percentage of activity [6]: −3%
EPHB2 percentage of activity [7]: 13%
TRKB percentage of activity [8]: 10%
PRKCI percentage of activity [9]: −5%
FGFR1 (V561M) percentage of activity [10]: 12%
JNK2A2 percentage of activity [11]: −7%
BTK percentage of activity [12]: −5%
PAK6 percentage of activity [13]: −14%
IKK beta percentage of activity [14]: 5%
PAR-1B alpha percentage of activity [15]: 7%
PASK percentage of activity [16]: 87%
TAO3 percentage of activity [17]: 22%
JNK1A1 percentage of activity [18]: −9%
PRKCD percentage of activity [19]: 7%
ROCK-II percentage of activity [20]: −4%
EPHA3 percentage of activity [21]: −6%
MINK percentage of activity [22]: −13%
NEK3 percentage of activity [23]: −12%
MEK6 percentage of activity [24]: 6%
SGK3 percentage of activity [25]: 2%
HIPK1 percentage of activity [26]: 90%
EPHB3 percentage of activity [27]: −36%
GSG2 percentage of activity [28]: 4%
PRKCE percentage of activity [29]: 0%
EPHA8 percentage of activity [30]: −15%
DAPK2 percentage of activity [31]: 91%
Structure (SMILES): C#Cc1cccc(Nc2nc3cc(C(=O)O)ccc3c3cncnc23)c1 [drawing 1135]
